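Dose response: 5 concentrations. Exposure: 48 h. Format: 96-well plates. Endpoint: linear interpolation; highest concentration if not reached. TGI marks complete inhibition of growth.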
Assays:
Experiment in all cases: NCI tumour cell line growth inhibition, 48 h
[1] = test system: HOP-62 NSCLC
[2] = test system: K-562 leukemia
[3] = test system: MDA-MB-435
[4] = test system: SNB-19 CNS
[5] = test system: NCI-H226 lung
[6] = test system: HOP-92 NSCLC
[7] = test system: SK-MEL-2 melanoma
[8] = test system: SK-MEL-28 melanoma
[9] = test system: CCRF-CEM leukemia
[10] = test system: HCC-2998 colon
[11] = test system: MALME-3M melanoma
[12] = test system: M14 melanoma
[13] = test system: A549 NSCLC
[14] = test system: COLO 205 colon
[15] = test system: SF-268 CNS
[16] = test system: NCI-H23 lung
[17] = test system: UACC-62 melanoma
[18] = test system: KM12 colon
[19] = test system: SW-620 colon
[20] = test system: HL-60(TB) leukemia
[21] = test system: MOLT-4 leukemia
[22] = test system: U251 CNS
[23] = test system: UO-31 renal
[24] = test system: SF-295 CNS
[25] = test system: T-47D breast
[26] = test system: RXF 393 renal
[27] = test system: HCT-116 colon
[28] = test system: SF-539 CNS
[29] = test system: SN12C renal
[30] = test system: RPMI-8226 leukemia
[31] = test system: HS 578T breast
[32] = test system: SK-MEL-5 melanoma
[33] = test system: OVCAR-5 ovarian
[34] = test system: NCI-H460 lung
[35] = test system: 786-0 renal
[36] = test system: IGROV1 ovarian
[37] = test system: A498 renal
[38] = test system: LOX IMVI melanoma
[39] = test system: CAKI-1 renal
[40] = test system: MDA-N
[41] = test system: HCT-15 colon
[42] = test system: SK-OV-3 ovarian
[43] = test system: NCI-H522 lung
[44] = test system: OVCAR-3 ovarian
[45] = test system: SR leukemia
[46] = test system: MCF7 breast
[47] = test system: MDA-MB-231 breast
[48] = test system: UACC-257 melanoma
[49] = test system: DU-145 prostate
[50] = test system: EKVX NSCLC
[51] = test system: NCI/ADR-RES ovarian
[52] = test system: ACHN renal
[53] = test system: TK-10 renal
[54] = test system: OVCAR-8 ovarian
[55] = test system: PC-3 prostate
[56] = test system: BT-549 breast
[57] = test system: HT29 colon
[58] = test system: SNB-75 CNS
[59] = test system: OVCAR-4 ovarian

O=C(O)CNC(=O)c1ccc(-c2ccccc2)cc1
TGI [1]: > 100 µM | TGI [2]: > 100 µM | TGI [3]: > 100 µM | TGI [4]: > 100 µM | TGI [5]: > 100 µM | TGI [6]: > 100 µM | TGI [7]: > 100 µM | TGI [8]: > 100 µM | TGI [9]: > 100 µM | TGI [10]: > 100 µM | TGI [11]: > 100 µM | TGI [12]: > 100 µM | TGI [13]: > 100 µM | TGI [14]: > 100 µM | TGI [15]: > 100 µM | TGI [16]: > 100 µM | TGI [17]: > 100 µM | TGI [18]: > 100 µM | TGI [19]: > 100 µM | TGI [20]: > 100 µM | TGI [21]: > 100 µM | TGI [22]: > 100 µM | TGI [23]: > 100 µM | TGI [24]: > 100 µM | TGI [25]: > 100 µM | TGI [26]: > 100 µM | TGI [27]: > 100 µM | TGI [28]: > 100 µM | TGI [29]: > 100 µM | TGI [30]: > 100 µM | TGI [31]: > 100 µM | TGI [32]: > 100 µM | TGI [33]: > 100 µM | TGI [34]: > 100 µM | TGI [35]: > 100 µM | TGI [36]: > 100 µM | TGI [37]: > 100 µM | TGI [38]: > 100 µM | TGI [39]: > 100 µM | TGI [40]: > 100 µM | TGI [41]: > 100 µM | TGI [42]: > 100 µM | TGI [43]: > 100 µM | TGI [44]: > 100 µM | TGI [45]: > 100 µM | TGI [46]: > 100 µM | TGI [47]: > 100 µM | TGI [48]: > 100 µM | TGI [49]: > 100 µM | TGI [50]: > 100 µM | TGI [51]: > 100 µM | TGI [52]: > 100 µM | TGI [53]: > 100 µM | TGI [54]: > 100 µM | TGI [55]: > 100 µM

O=c1oc2ccc3ccccc3c2cc1-c1cn2ccccc2n1
TGI [1]: > 100 µM | TGI [2]: > 100 µM | TGI [3]: > 100 µM | TGI [5]: > 100 µM | TGI [6]: > 100 µM | TGI [7]: > 100 µM | TGI [8]: > 100 µM | TGI [9]: > 100 µM | TGI [10]: > 100 µM | TGI [12]: > 100 µM | TGI [13]: > 100 µM | TGI [14]: > 100 µM | TGI [15]: > 100 µM | TGI [16]: > 100 µM | TGI [17]: > 100 µM | TGI [18]: > 100 µM | TGI [19]: > 100 µM | TGI [20]: > 100 µM | TGI [56]: > 100 µM | TGI [21]: > 100 µM | TGI [22]: > 100 µM | TGI [23]: > 100 µM | TGI [24]: > 100 µM | TGI [25]: > 100 µM | TGI [26]: > 100 µM | TGI [27]: > 100 µM | TGI [28]: > 100 µM | TGI [29]: > 100 µM | TGI [30]: > 100 µM | TGI [57]: 77.5 µM | TGI [31]: > 100 µM | TGI [32]: > 100 µM | TGI [34]: > 100 µM | TGI [35]: > 100 µM | TGI [36]: > 100 µM | TGI [38]: > 100 µM | TGI [39]: 75.1 µM | TGI [40]: > 100 µM | TGI [41]: > 100 µM | TGI [42]: > 100 µM | TGI [43]: > 100 µM | TGI [44]: > 100 µM | TGI [45]: > 100 µM | TGI [47]: > 100 µM | TGI [48]: > 100 µM | TGI [49]: > 100 µM | TGI [50]: > 100 µM | TGI [51]: > 100 µM | TGI [52]: 94.2 µM | TGI [58]: > 100 µM | TGI [53]: > 100 µM | TGI [54]: > 100 µM | TGI [55]: > 100 µM

N#Cc1c(N)nc(-c2ccc(Cl)cc2)c2c1-c1ccccc1S(=O)(=O)CC2
TGI [1]: > 100 µM | TGI [2]: > 100 µM | TGI [3]: > 100 µM | TGI [4]: 93.9 µM | TGI [5]: > 100 µM | TGI [6]: > 100 µM | TGI [7]: > 100 µM | TGI [8]: > 100 µM | TGI [10]: > 100 µM | TGI [11]: > 100 µM | TGI [12]: > 100 µM | TGI [13]: > 100 µM | TGI [14]: > 100 µM | TGI [15]: > 100 µM | TGI [16]: > 100 µM | TGI [17]: > 100 µM | TGI [18]: > 100 µM | TGI [19]: > 100 µM | TGI [56]: > 100 µM | TGI [22]: > 100 µM | TGI [23]: > 100 µM | TGI [25]: > 100 µM | TGI [27]: > 100 µM | TGI [29]: > 100 µM | TGI [30]: > 100 µM | TGI [57]: > 100 µM | TGI [31]: > 100 µM | TGI [32]: > 100 µM | TGI [33]: > 100 µM | TGI [34]: > 100 µM | TGI [35]: > 100 µM | TGI [36]: > 100 µM | TGI [37]: > 100 µM | TGI [38]: > 100 µM | TGI [39]: > 100 µM | TGI [40]: > 100 µM | TGI [41]: > 100 µM | TGI [43]: > 100 µM | TGI [44]: > 100 µM | TGI [45]: > 100 µM | TGI [47]: > 100 µM | TGI [48]: > 100 µM | TGI [49]: > 100 µM | TGI [51]: > 100 µM | TGI [52]: > 100 µM | TGI [58]: > 100 µM | TGI [53]: > 100 µM | TGI [54]: > 100 µM | TGI [59]: > 100 µM | TGI [55]: > 100 µM

O=C1/C(=C/c2ccccc2O)N=C(c2ccccc2)N1C1Nc2cc3c(cc2S1)NC(N1C(=O)/C(=C/c2ccccc2O)N=C1c1ccccc1)S3 (centres undefined)
TGI [1]: > 100 µM | TGI [2]: > 100 µM | TGI [3]: > 100 µM | TGI [5]: > 100 µM | TGI [6]: 15 µM | TGI [7]: > 100 µM | TGI [8]: > 100 µM | TGI [9]: > 100 µM | TGI [10]: > 100 µM | TGI [12]: > 100 µM | TGI [15]: 59.6 µM | TGI [16]: > 100 µM | TGI [18]: > 100 µM | TGI [19]: > 100 µM | TGI [20]: > 100 µM | TGI [21]: > 100 µM | TGI [22]: > 100 µM | TGI [23]: > 100 µM | TGI [24]: > 100 µM | TGI [25]: > 100 µM | TGI [26]: 70 µM | TGI [27]: > 100 µM | TGI [28]: > 100 µM | TGI [30]: > 100 µM | TGI [57]: > 100 µM | TGI [31]: > 100 µM | TGI [32]: > 100 µM | TGI [33]: > 100 µM | TGI [34]: > 100 µM | TGI [35]: > 100 µM | TGI [36]: > 100 µM | TGI [37]: > 100 µM | TGI [38]: > 100 µM | TGI [39]: > 100 µM | TGI [40]: > 100 µM | TGI [41]: > 100 µM | TGI [42]: > 100 µM | TGI [43]: > 100 µM | TGI [44]: > 100 µM | TGI [45]: > 100 µM | TGI [46]: > 100 µM | TGI [47]: > 100 µM | TGI [48]: > 100 µM | TGI [49]: > 100 µM | TGI [50]: > 100 µM | TGI [51]: > 100 µM | TGI [52]: > 100 µM | TGI [53]: > 100 µM | TGI [54]: > 100 µM | TGI [59]: > 100 µM | TGI [55]: > 100 µM
